In the test the test system is P. falciparum 3D7 growth, pLDH absorbance. The experiment in a line: P. falciparum 3D7 growth inhibition, dose response, strain 3D7 (AID 2305).

On to `Cc1ccc(Oc2ccccc2NC(=O)CCc2nc3ccccc3c(=O)[nH]2)cc1`, for which the IC50 worked out at 830 nM.
On to `O=C(N[C@@H](Cc1ccccc1)C(=O)NC1CCCc2ccccc21)c1ccc(O)c(-c2cccc(C(F)(F)F)c2)c1` (stereo partly drawn), for which the half-inhibitory concentration (IC50) was 1000 nM. This IC50 and that of the compound before are within 1.5-fold of each other.
Take `CCOC(=O)c1ccc(NC(=O)NCCCC2CCCN(CCCCCNC(=O)/C=C/c3ccc(Cl)c(Cl)c3)C2)cc1` (stereo not drawn): the concentration for half-maximal inhibition (IC50) was 860 nM. This IC50 and that of the compound before are within 1.5-fold of each other.
In turn, `CSc1ccc(CN2CCC(NC(=O)c3ccc(-c4ccc(N(C)C)cc4)s3)CC2)cc1` returned an IC50 of 1500 nM.
To `CS(=O)(=O)CCNCc1ccc(-c2ccc3c(Nc4ccc(Cl)cc4F)ccnc3c2)o1` belongs 670 nM.
The value for `NC(N)=NCC=C(c1ccccc1)c1ccccc1` was 990 nM; that for `Cc1cc(NC(=O)c2cc(Br)ccc2Cl)n(-c2nc(C)c(C)c(=O)[nH]2)n1` was 1130 nM; that for `CCc1sc(N2CCC(C)CC2)nc1C(=O)Nc1ccc(F)cc1C(F)(F)F` was 1090 nM.
Compound `CC(=O)N/N=C/[C@H](CCc1ccccc1)NC(=O)[C@H](CC(C)C)NC(=O)c1cccc(OCCN2CCOCC2)c1` returned a 50% inhibitory concentration (IC50) of 240 nM. Against the preceding compound, the IC50 is about 4.5-fold lower.
`CC(C)C(=O)n1ncc2c3c(N)nc(N)nc3ccc21` came in with an IC50 of 1030 nM.
The compound `COc1ccc2c(c1)CCCC2NCCCCNC(=O)c1ccc(NC(=O)c2ccc(Cl)cc2)cc1` (stereo not drawn) came in with an IC50 of 380 nM. This IC50 is about 2.7-fold lower than that of the compound before.
Turning to `COc1cccc(NC(=O)c2cc([N+](=O)[O-])ccc2NC(=O)CN2CCc3ccccc3C2)c1`, the IC50 was found to be 590 nM. This IC50 lies about 1.6-fold higher than the previous one.
Compound `CCCCn1c(Sc2ccc(C#N)c([N+](=O)[O-])c2)nnc1-c1ccc(OC)cc1` gave an IC50 of 1030 nM.
To `Fc1ccc2nc(-c3ccc(-c4ccc(CN5CCCCC5)cc4)cc3)[nH]c2c1` belongs 350 nM; to `Cc1cccc2[nH]c(-c3ccc(-c4ccc(CN5CCN(CCN6CCOCC6)CC5)cc4)cc3)nc12`, 230 nM.
`CCOc1c(OC)ccc2c1CCN(CCN1CCC(CNC(=O)c3ccc(-c4ccc(C(F)(F)F)cc4)cc3)CC1)C2`: the IC50 came out at 850 nM.
The value for `CCc1c(C)nc(-n2nc(C)cc2NC(=O)CC(c2ccccc2)c2ccccc2)[nH]c1=O` was 650 nM.
`Cc1cnc(NCC2CCCCC2)nc1NCC(=O)Nc1ccccc1` registered an IC50 of 710 nM.
Compound `Cc1noc(C)c1-c1cccc(CNCc2cccc(-c3ccc(-c4nc5ccc(C(F)(F)F)cc5[nH]4)s3)c2)c1` displayed an IC50 of 170 nM.
For the compound `COc1cc(NCC(C)CNCc2cn(Cc3ccccc3)c3ccccc23)nc2ccccc12` (stereo not drawn), the IC50 was determined as 630 nM. Compared with the last compound, the IC50 is about 3.7-fold higher.
Regarding `Oc1cc(Nc2ccnc3cc(I)ccc23)ccc1F`, the IC50 amounted to 740 nM.
The compound `CCc1cc(NC2CCN(C)CC2)nc(Nc2cccc(OC)c2)n1` had a half-inhibitory concentration (IC50) of 860 nM.
The compound `Cc1ccc(NC(=O)c2ccc(NCCCN(C)Cc3ccccc3)c([N+](=O)[O-])c2)cc1F` yielded a 50% inhibitory concentration (IC50) of 700 nM.
For the compound `Cc1ccc(C(=O)Cn2nc(-c3ccc(C)c(S(=O)(=O)N4CCCCC4)c3)ccc2=O)cc1`, the IC50 was 330 nM.
Compound `Clc1ccc(CNc2ccnc(NCc3ccc4c(c3)OCCCO4)n2)c(Cl)c1` registered an IC50 of 990 nM.
In turn, `Nc1cc(C=Cc2ccc(O)cc2)nc2ccccc12` registered a concentration for half-maximal inhibition (IC50) of 990 nM.
`CC(C)CNCc1cccc(-c2cccc(CNc3ccc4ncccc4c3)c2)c1` had an IC50 of 950 nM.
In the case of `NC(N)=Nc1nccc(NCc2ccccc2)n1`, the IC50 was 890 nM.
The value for `CNCCNCc1ccc(-c2ccc(-c3nc4ccc(F)cc4[nH]3)s2)cc1` was 770 nM; that for `CC[C@H](NC(=O)c1c(CCCN2CCN(c3ccccc3)CC2)c(-c2ccccc2)nc2cc(O)ccc12)c1ccccc1` was 780 nM; that for `Cc1c(-c2cccc(NC(=O)C(C)(C)Oc3ccc(Cl)cc3)c2)nc2ncccn12` was 170 nM.
Take `Cc1cccc2[nH]c(-c3cccc(-c4cccc(NC(=O)c5ccoc5)c4)c3)nc12`: the IC50 was determined as 220 nM.
`CCN1CCC(N(Cc2ccc(-c3ccc(C(F)(F)F)cc3)cc2)C(=O)Cn2c(SCc3ccc(F)cc3)nc(=O)c3c2CCC3)CC1`: the IC50 worked out at 990 nM.
`COc1cccc(OCC2CCCN(CCCCNC(=O)c3ccc(NC(=O)c4ccc(Cl)cc4)cc3)C2)c1` (stereo not drawn) came in with a concentration for half-maximal inhibition (IC50) of 750 nM.
Compound `Cc1ccc(CN2CCN(c3cc4c(cc3Cl)CCN4C(=O)Cc3ccc(Cl)c(NC(=O)Nc4cccc(C#N)c4)c3)CC2)cc1` came in with a 50% inhibitory concentration (IC50) of 1130 nM.
To `O=C(c1cc(OC(F)(F)F)ccc1O)N1CCN(c2ccccc2)CC1` belongs 1050 nM.
`C(=N\Nc1nccc2sc(-c3cccnc3)cc12)/c1ccncc1` had an IC50 of 210 nM.
Take `O=C(Cn1c(SCc2cccc(F)c2F)cc(=O)c2ccccc21)N(Cc1ccc(-c2ccc(C(F)(F)F)cc2)cc1)C1CCN(CCO)CC1`: the concentration for half-maximal inhibition (IC50) stood at 1250 nM.
`Cc1ccc2c(Cl)c(C(=O)N3CCCc4ccccc43)sc2c1`: the half-inhibitory concentration (IC50) came to 1510 nM.
The compound `COc1cccc(NC(=O)Nc2cc(-c3ccc4[nH]ncc4c3)cc3c2CNC3=O)c1` gave a half-inhibitory concentration (IC50) of 120 nM. This IC50 lies about 13-fold lower than the previous one.
Compound `O=C(/C=C/c1ccc(Cl)c(Cl)c1)NCCCCCN1CCCN(C(=O)Nc2ccc(F)c(Cl)c2)CC1` had an IC50 of 800 nM.
The value for `CC(=O)Nc1cccc(C(=O)Nc2cccc(-c3csc(-c4nc5ccccc5[nH]4)c3)c2)c1` was 180 nM; that for `CC1CN=C(c2ccc(NC(=O)c3ccc(C(=O)Nc4ccc(C5=NCC(C)N5)cc4)cc3)cc2)N1` (stereo not drawn) was 30 nM.
Compound `CCCC(C)Nc1nc(C)cc(N[C@@H](Cc2ccccc2)C(=O)NCCOc2ccccc2)n1` (stereo partly drawn) returned an IC50 of 700 nM. Compared with the last compound, the IC50 is about 23-fold higher.
The value for `COc1ccc(-c2nc3c(N)nc(N)nc3nc2C(C)C)cc1` was 190 nM; that for `CCc1cc2c(Sc3nc4ccccc4[nH]3)ncnc2s1` was 820 nM.
In turn, `COc1ccc(CCNCC(O)COc2nccc3c(S(=O)(=O)N4CCCNCC4)cccc23)cc1OC` (stereo not drawn) displayed an IC50 of 270 nM.
To `COc1ccc(CNC(=O)c2cnc3c(O)cccc3c2Nc2cccc(NC(=O)c3ccc(F)cc3)c2)cc1` belongs 1000 nM.
`COC(=O)c1cccc(NC(=O)NC2CCN(c3ccnc(Nc4ccc(OC)cc4)n3)C2)c1` (stereo not drawn) had a concentration for half-maximal inhibition (IC50) of 470 nM.
The value for `O=C(NCCCCN1CC=C(c2ccc3c(c2OCc2ccccc2)CCCC3)CC1)c1ccc(-c2ccc(C(F)(F)F)cc2)cc1` was 300 nM; that for `C/C=C1/CN2CC[C@H]1C[C@H]2[C@H](O)c1ccnc2ccc(OC)cc12` was 200 nM; that for `N#Cc1ccc(CN2CCC(Oc3ccc(NC(=O)c4ccccc4)cc3Cl)CC2)cc1` was 1260 nM.
Compound `CC(C)NCc1ccc(-c2cccc(NC(=O)c3ccc(F)cc3)c2)cc1` came in with a half-maximal inhibitory concentration (IC50) of 880 nM. The IC50 values of the last two compounds are within 1.5-fold of each other.
Compound `CSc1ccc2nccc(Nc3ccc(Oc4ccccc4)cc3)c2c1` yielded an IC50 of 870 nM.
In the case of `O=C(Nc1nc2cc(S(=O)(=O)NCCCN3CCOCC3)ccc2n1CCCn1ccnc1)c1ccc(Cl)cc1`, the IC50 stood at 930 nM.
Regarding `Cc1cc(-c2cccc(CNC3CCCC3)c2)ccc1S(=O)(=O)NCCN1CCCC1`, the IC50 is 1240 nM.
As to `CN(C)CCNC(=O)[C@H](Cc1ccccc1)NC(=O)c1ccc(O)c(-c2ccc(Cl)c(Cl)c2)c1`, the half-inhibitory concentration (IC50) is 710 nM. Compared with the last compound, the IC50 is about 1.7-fold lower.
The compound `Cc1cc2nc(NC3=NC4(c5ccccn5)N=C(Nc5nc6cc(C)c(C)cc6[nH]5)NC4(c4ccccn4)N3)[nH]c2cc1C` (stereo not drawn) returned an IC50 of 680 nM.
In turn, `Nc1nc(N)c2c(Oc3ccc(Cl)c(Cl)c3)cccc2n1` returned an IC50 of 870 nM.
Turning to `C=CCNc1cc(-c2ccccn2)nc(-c2ccccn2)n1`, the 50% inhibitory concentration (IC50) was found to be 470 nM.
`O=C(O)c1cc(C(F)(F)F)co1` registered a 50% inhibitory concentration (IC50) of 830 nM.
Compound `O=C(Nc1ccsc1)Nc1cccc(-c2cccc(-c3nc4ccc(F)cc4[nH]3)c2)c1` gave an IC50 of 200 nM.
To `COc1ccc2ncc(Cl)c(CCN3CCC(NCc4ccc5c(n4)NC(=O)CO5)CC3)c2c1` belongs 470 nM.
As to `O=S(=O)(Nc1ccc2nccc(N3CCNCC3)c2c1)c1ccc2oc3ccccc3c2c1`, the concentration for half-maximal inhibition (IC50) came out at 690 nM. The IC50 values of the last two compounds are within 1.5-fold of each other.
`O=C(Nc1ccccc1)N(Cc1ccc(-c2cccc(CNC3CCCC3)c2)cc1)C1CCN(Cc2ccccc2)CC1` came in with an IC50 of 430 nM.
`COc1ccc(-c2nc3nc4ccccc4cc3[nH]2)c(OCC(O)CNC(C)C)c1` (stereo not drawn) came in with a half-maximal inhibitory concentration (IC50) of 690 nM.
`Cc1cc(-c2ccc(CNC3Cc4ccccc4C3)cc2)ccc1S(=O)(=O)NCCN1CCCC1` yielded a half-inhibitory concentration (IC50) of 700 nM.
The compound `COc1cc2nc(NCCc3ccccc3)nc(NCc3cnn(C)c3C)c2cc1OC` showed an IC50 of 710 nM.
Take `CN1CCN(c2ccc(Nc3ncc(Cl)c(Nc4cccnc4C(N)=O)n3)cc2)CC1`: the IC50 was found to be 150 nM.
Regarding `O=C(Nc1cccc(Cl)c1Cl)N1CCc2cc3nccc(N4CCN5CCC[C@H]5C4)c3cc21`, the 50% inhibitory concentration (IC50) was determined as 1040 nM.
`CC(CN1CCN(C)CC1)C(=O)Nc1cccc(-c2ccc(-c3nc4ccc(C(F)(F)F)cc4[nH]3)cc2)c1` (stereo not drawn) came in with a half-inhibitory concentration (IC50) of 610 nM.
Compound `N#Cc1ccc(C=Cc2nccc3c2[nH]c2ccccc23)cc1` showed an IC50 of 640 nM.
Compound `Cc1ccc(Cc2cccc3nc(N)nc(N)c23)cc1` registered an IC50 of 1150 nM.
`O=C(Nc1ccc2c(c1)OCO2)NC1CCN(c2ccnc(Nc3ccc(F)cc3)n2)C1` (stereo not drawn): the IC50 was determined as 740 nM.
In turn, `CN(C(=O)Cc1ccc(Cl)c(Cl)c1)C1CCN(CCCCCNC(=O)/C=C/c2ccc(Cl)c(Cl)c2)CC1` gave an IC50 of 740 nM. That is a sub-micromolar value.
The value for `CC(C)c1cccc(OCC2CCN(c3ncc(C(=O)NC4CC4)cc3Cl)CC2)c1` was 680 nM; that for `c1ccc2c(NCCCCCCNc3c4ccccc4nc4ccccc34)c3ccccc3nc2c1` was 750 nM.
`COc1cc(F)c2ncc(F)c([C@@H](O)CN3CCC(NCc4cc5c(cn4)OCCO5)CC3)c2c1` gave an IC50 of 480 nM.
In the case of `CC(C)(C)OC(=O)NCc1ccc(Nc2nnc(-c3ccc(OCC(=O)NCc4ccc(C(C)(C)C)cc4)c([N+](=O)[O-])c3)o2)cc1`, the IC50 stood at 800 nM. This IC50 lies about 1.7-fold higher than the previous one.
Take `Cc1ccc(Nc2ccnc3ccc(C(F)(F)F)cc23)cc1O`: the IC50 worked out at 960 nM.
The value for `Cc1nnc2c(N(C(=O)NCCc3ccccc3)C(=O)NCCc3ccccc3)cc3cc(Cl)ccc3n12` was 950 nM; that for `COc1ccc(-c2cccc(NC(=O)c3ccc(C#N)cc3)c2)cc1CN1CCCC1` was 700 nM.
To `Cc1ccc2nc(Cl)c3cc(C(=O)NCCCN4CCCC4)sc3c2c1` belongs 1140 nM.
Compound `CCOC(=O)c1[nH]c(-c2ccccc2)nc1NC(=S)NC1CCCCC1` gave an IC50 of 840 nM.
In the case of `C#CC[C@@H](NC(N)=O)C(=O)O`, the IC50 was determined as 190 nM. This IC50 is about 4.4-fold lower than that of the compound before.
Turning to `COc1ccc(CC(C)NCC(O)c2cccc(Cl)c2F)cc1` (stereo not drawn), the IC50 amounted to 1080 nM. This IC50 lies about 5.7-fold higher than the previous one.
On to `CN(C)c1ccc(C(c2ccc(N(C)C)cc2)c2cc([N+](=O)[O-])ccc2Cl)cc1`, for which the IC50 came out at 910 nM.
`CCCCc1cc(NCC)nc(Nc2cccc(OC)c2)n1`: the IC50 amounted to 920 nM.

A word on the IC50: it is the concentration that gives 50% inhibition.

For the origin of these results see PubChem BioAssay AID2305 (GlaxoSmithKline (GSK), 2010).
